According to patent publication US20250114345A1, “COMPOUNDS AND COMPOSITIONS AS CBP/P300 DEGRADERS AND USES THEREOF” (Oncopia Therapeutics, Inc. d/b/a/ SK Life Science Labs, priority 2023, published 2025):

Target: T1, p300 (Homo sapiens, UniProt Q09472)
T1 construct: host or cells: A549 P300 HiBit cells
Assay: P300 degradation, HiBit technology in A549 P300 HiBit cells (2 h)
Type: cell-based
Conditions: 2 hrs post treatment; for Dmax: A549, A549 P300 HiBit cells; for DC50: A549 P300 HiBit cells
Method: p300 and CBP degradation potency and Dmax were determined using in cell western (ICW) assay technology in H1299 cells or HiBit technology in A549 HiBit cells.
A549 P300 HiBit and A549 CBP HiBit cells were plated in separate 384-well, TC treated, white-opaque, flat-bottomed microplate. Cells were plated at a cell density of 0.2×10^4 cells per well in assay media comprised of F-12K, 10% heat inactivated FBS, and 1% penicillin/streptomycin. Assay microplates containing HiBit cells were placed in a 37° C., 5% CO2, tissue culture incubator and left to equilibrate overnight. The next day cells were treated with serial dilutions of test compound made up of 10 mM stock solutions in DMSO. 384-Well plates containing treated cells were then placed back into a 37° C., 5% CO2, tissue culture incubator. Assay microplates containing A549 P300 HiBit cells were incubated for 2 hrs post treatment before P300 destruction was assessed, while microplates containing A549 CBP HiBit cells were incubated for 24 hrs post treatment before CBP destruction was determined. On the day of each assay time point, microplates were removed from the tissue culture incubator and prepared HiBit Lytic detection buffer (Promega, cat #N3O40) was added to each plate. Plates were covered with aluminum foil and incubated for ten minutes at room temperature on an orbital shaker. After incubation, luminescent signal of each plate was measured using the Envision instrument (Perkin Elmer).

T1 sequence (Q09472 whole entry): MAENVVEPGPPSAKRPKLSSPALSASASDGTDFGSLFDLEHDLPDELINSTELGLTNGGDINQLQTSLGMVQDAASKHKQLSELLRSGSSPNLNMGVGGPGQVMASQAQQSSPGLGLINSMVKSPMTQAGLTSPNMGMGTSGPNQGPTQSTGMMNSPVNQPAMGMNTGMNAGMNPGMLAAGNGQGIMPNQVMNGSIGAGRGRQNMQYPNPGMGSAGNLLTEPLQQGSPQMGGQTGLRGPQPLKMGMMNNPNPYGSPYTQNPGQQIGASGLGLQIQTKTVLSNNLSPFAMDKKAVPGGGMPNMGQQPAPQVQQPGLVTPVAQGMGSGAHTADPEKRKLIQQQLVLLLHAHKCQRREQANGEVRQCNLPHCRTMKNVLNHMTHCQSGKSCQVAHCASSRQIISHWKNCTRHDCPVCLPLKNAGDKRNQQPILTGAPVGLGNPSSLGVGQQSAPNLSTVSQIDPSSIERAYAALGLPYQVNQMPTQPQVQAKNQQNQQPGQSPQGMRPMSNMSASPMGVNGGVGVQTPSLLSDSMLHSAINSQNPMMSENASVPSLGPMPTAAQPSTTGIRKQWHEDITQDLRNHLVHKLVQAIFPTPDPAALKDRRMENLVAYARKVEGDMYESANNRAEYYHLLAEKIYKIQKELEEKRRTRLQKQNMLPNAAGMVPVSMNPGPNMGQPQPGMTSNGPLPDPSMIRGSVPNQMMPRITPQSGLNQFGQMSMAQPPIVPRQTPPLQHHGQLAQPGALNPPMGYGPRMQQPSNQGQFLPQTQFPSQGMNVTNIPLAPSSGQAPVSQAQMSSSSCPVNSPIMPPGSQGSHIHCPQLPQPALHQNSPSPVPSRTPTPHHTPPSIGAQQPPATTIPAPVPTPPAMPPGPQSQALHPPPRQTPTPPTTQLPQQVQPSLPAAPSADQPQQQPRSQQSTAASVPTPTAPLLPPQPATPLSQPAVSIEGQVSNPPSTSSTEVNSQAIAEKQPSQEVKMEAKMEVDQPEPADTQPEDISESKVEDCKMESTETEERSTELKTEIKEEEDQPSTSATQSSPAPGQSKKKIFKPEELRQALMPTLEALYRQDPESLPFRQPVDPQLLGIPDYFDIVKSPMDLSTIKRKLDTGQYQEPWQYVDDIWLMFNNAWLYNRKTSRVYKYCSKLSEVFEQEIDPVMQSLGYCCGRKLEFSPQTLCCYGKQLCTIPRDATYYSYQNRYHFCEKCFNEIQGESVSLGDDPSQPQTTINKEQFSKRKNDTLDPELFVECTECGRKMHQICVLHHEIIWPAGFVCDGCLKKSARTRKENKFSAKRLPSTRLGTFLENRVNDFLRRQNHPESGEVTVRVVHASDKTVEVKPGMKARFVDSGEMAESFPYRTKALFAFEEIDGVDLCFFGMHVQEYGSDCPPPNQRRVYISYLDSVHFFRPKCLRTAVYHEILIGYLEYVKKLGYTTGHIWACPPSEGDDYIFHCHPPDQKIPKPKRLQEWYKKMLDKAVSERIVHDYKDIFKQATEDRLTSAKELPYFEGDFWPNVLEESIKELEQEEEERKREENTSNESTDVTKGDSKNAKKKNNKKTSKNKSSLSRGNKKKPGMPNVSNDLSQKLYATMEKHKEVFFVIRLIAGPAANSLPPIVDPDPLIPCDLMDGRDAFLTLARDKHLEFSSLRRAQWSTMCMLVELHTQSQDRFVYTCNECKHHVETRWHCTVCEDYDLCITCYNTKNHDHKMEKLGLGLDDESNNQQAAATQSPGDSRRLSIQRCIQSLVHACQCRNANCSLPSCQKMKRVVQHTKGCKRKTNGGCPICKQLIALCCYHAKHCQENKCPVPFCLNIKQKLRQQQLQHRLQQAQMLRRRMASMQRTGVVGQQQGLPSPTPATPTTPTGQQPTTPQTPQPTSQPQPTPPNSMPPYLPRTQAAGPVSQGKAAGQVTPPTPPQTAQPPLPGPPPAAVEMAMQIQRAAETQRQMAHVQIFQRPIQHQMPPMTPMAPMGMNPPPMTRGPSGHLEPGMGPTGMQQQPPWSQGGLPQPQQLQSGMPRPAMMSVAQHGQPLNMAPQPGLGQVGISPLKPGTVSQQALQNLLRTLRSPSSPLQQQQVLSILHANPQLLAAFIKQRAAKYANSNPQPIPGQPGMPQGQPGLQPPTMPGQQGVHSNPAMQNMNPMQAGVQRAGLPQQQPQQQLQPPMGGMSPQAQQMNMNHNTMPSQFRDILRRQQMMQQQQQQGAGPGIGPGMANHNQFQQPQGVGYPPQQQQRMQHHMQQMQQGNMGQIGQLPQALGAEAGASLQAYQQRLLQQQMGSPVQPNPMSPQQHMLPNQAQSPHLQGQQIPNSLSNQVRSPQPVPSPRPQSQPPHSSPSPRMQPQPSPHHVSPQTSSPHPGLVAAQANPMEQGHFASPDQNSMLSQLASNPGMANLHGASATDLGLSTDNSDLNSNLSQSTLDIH

| Dmax [%] | DC50 [nM] | Structure (SMILES) |
| --- | --- | --- |
| > 80 | 10 to 99 | COc1nn(C2CCC(=O)NC2=O)c2cc(C#CCNC(=O)c3ccc(-c4cc5cccc(-c6cc(C(C)C)c7c(c6)n(C)c(=O)n7C)c5cn4)cn3)ccc12 (stereo not drawn) [Example A4, N-(3-(1-(2,6-Dioxopiperidin-3-yl)-3-methoxy-1H-indazol-6-yl)prop-2-yn-1-yl)-5-(8-(7-isopropyl-1,3-dimethyl-2-oxo-2,3-dihydro-1H-benzo[d]imidazol-5-yl)isoquinolin-3-yl)picolinamide] |
| 60 to 79 | 1 to 9.9 | CC(C)c1cc(-c2cccc3cc(-c4ccc(C(=O)NCC#Cc5cc6c(cn5)cnn6C5CCC(=O)NC5=O)nc4)ncc23)cc2c1n(C)c(=O)n2C (stereo not drawn) [Example A6, N-(3-(1-(2,6-Dioxopiperidin-3-yl)-1H-pyrazolo[4,3-c]pyridin-6-yl)prop-2-yn-1-yl)-5-(8-(7-isopropyl-1,3-dimethyl-2-oxo-2,3-dihydro-1H-benzo[d]imidazol-5-yl)isoquinolin-3-yl)picolinamide] |
| > 80 | 10 to 99 | CC(C)c1cc(-c2cccc3cc(-c4ccc(C(=O)NCC#Cc5ccc6c(C#N)nn(C7CCC(=O)NC7=O)c6c5)nc4)ncc23)cc2c1n(C)c(=O)n2C (stereo not drawn) [Example A7, N-(3-(3-Cyano-1-(2,6-dioxopiperidin-3-yl)-1H-indazol-6-yl)prop-2-yn-1-yl)-5-(8-(7-isopropyl-1,3-dimethyl-2-oxo-2,3-dihydro-1H-benzo[d]imidazol-5-yl)isoquinolin-3-yl)picolinamide] |
| 60 to 79 | 10 to 99 | Cc1cc2cnn(C3CCC(=O)NC3=O)c2cc1C#CCNC(=O)c1ccc(-c2cc3cccc(-c4cc(C(C)C)c5c(c4)n(C)c(=O)n5C)c3cn2)cn1 (stereo not drawn) [Example A8, N-(3-(1-(2,6-Dioxopiperidin-3-yl)-5-methyl-1H-indazol-6-yl)prop-2-yn-1-yl)-5-(8-(7-isopropyl-1,3-dimethyl-2-oxo-2,3-dihydro-1H-benzo[d]imidazol-5-yl)isoquinolin-3-yl)picolinamide] |
| 60 to 79 | 10 to 99 | CC(C)c1cc(-c2cccc3cc(-c4ccc(C(=O)NCC#Cc5cc(N(C)C)c6cnn(C7CCC(=O)NC7=O)c6c5)nc4)ncc23)cc2c1n(C)c(=O)n2C (stereo not drawn) [Example A9, N-(3-(4-(Dimethylamino)-1-(2,6-dioxopiperidin-3-yl)-1H-indazol-6-yl)prop-2-yn-1-yl)-5-(8-(7-isopropyl-1,3-dimethyl-2-oxo-2,3-dihydro-1H-benzo[d]imidazol-5-yl)isoquinolin-3-yl)picolinamide] |
| 20 to 39 | 10 to 99 | CC(C)c1cc(-c2cccc3cc(-c4ccc(C(=O)NCC#Cc5ccc6cnn(C7CCC(=O)NC7=O)c6n5)nc4)ncc23)cc2c1n(C)c(=O)n2C (stereo not drawn) [Example A12, N-(3-(1-(2,6-Dioxopiperidin-3-yl)-1H-pyrazolo[3,4-b]pyridin-6-yl)prop-2-yn-1-yl)-5-(8-(7-isopropyl-1,3-dimethyl-2-oxo-2,3-dihydro-1H-benzo[d]imidazol-5-yl)isoquinolin-3-yl)picolinamide] |
| > 80 | 1 to 9.9 | CC(C)c1cc(-c2cccc3cc(-c4ccc(C(=O)NCC#Cc5cnc6ccn(C7CCC(=O)NC7=O)c6c5)nc4)ncc23)cc2c1n(C)c(=O)n2C (stereo not drawn) [Example A13, N-(3-(1-(2,6-Dioxopiperidin-3-yl)-1H-pyrrolo[3,2-b]pyridin-6-yl)prop-2-yn-1-yl)-5-(8-(7-isopropyl-1,3-dimethyl-2-oxo-2,3-dihydro-1H-benzo[d]imidazol-5-yl)isoquinolin-3-yl)picolinamide] |
| < 20 | > 1000 | CC(C)c1cc(-c2cccc3cc(-c4ccc(C(=O)NCC#Cc5ccc6c(c5)nnn6C5CCC(=O)NC5=O)nc4)ncc23)cc2c1n(C)c(=O)n2C (stereo not drawn) [Example A17, N-(3-(1-(2,6-Dioxopiperidin-3-yl)-1H-benzo[d][1,2,3]triazol-5-yl)prop-2-yn-1-yl)-5-(8-(7-isopropyl-1,3-dimethyl-2-oxo-2,3-dihydro-1H-benzo[d]imidazol-5-yl)isoquinolin-3-yl)picolinamide] |
| 60 to 79 | 100 to 999 | CC(C)c1cc(-c2cccc3cc(-c4ccc(C(=O)NCC#Cc5ccc6c(C#N)cn(C7CCC(=O)NC7=O)c6c5)nc4)ncc23)cc2c1n(C)c(=O)n2C (stereo not drawn) [Example A19, N-(3-(3-Cyano-1-(2,6-dioxopiperidin-3-yl)-1H-indol-6-yl)prop-2-yn-1-yl)-5-(8-(7-isopropyl-1,3-dimethyl-2-oxo-2,3-dihydro-1H-benzo[d]imidazol-5-yl)isoquinolin-3-yl)picolinamide] |
| 60 to 79 | 1 to 9.9 | CC(C)c1cc(-c2cccc3cc(-c4ccc(C(=O)NCC#Cc5cnc6cnn(C7CCC(=O)NC7=O)c6c5)nc4)ncc23)cc2c1n(C)c(=O)n2C (stereo not drawn) [Example A20, N-(3-(1-(2,6-Dioxopiperidin-3-yl)-1H-pyrazolo[4,3-b]pyridin-6-yl)prop-2-yn-1-yl)-5-(8-(7-isopropyl-1,3-dimethyl-2-oxo-2,3-dihydro-1H-benzo[d]imidazol-5-yl)isoquinolin-3-yl)picolinamide] |
| 60 to 79 | 100 to 999 | CC(C)c1cc(-c2cccc3cc(-c4ccc(C(=O)NCC#Cc5cc(C#N)c6cnn(C7CCC(=O)NC7=O)c6c5)nc4)ncc23)cc2c1n(C)c(=O)n2C (stereo not drawn) [Example A21, N-(3-(4-Cyano-1-(2,6-dioxopiperidin-3-yl)-1H-indazol-6-yl)prop-2-yn-1-yl)-5-(8-(7-isopropyl-1,3-dimethyl-2-oxo-2,3-dihydro-1H-benzo[d]imidazol-5-yl)isoquinolin-3-yl)picolinamide] |
| 20 to 39 | 10 to 99 | CC(C)c1cc(-c2cccc3cc(-c4ccc(C(=O)NCC#Cc5cc6c(ccn6C6CCC(=O)NC6=O)cn5)nc4)ncc23)cc2c1n(C)c(=O)n2C (stereo not drawn) [Example A22, N-(3-(1-(2,6-Dioxopiperidin-3-yl)-1H-pyrrolo[3,2-c]pyridin-6-yl)prop-2-yn-1-yl)-5-(8-(7-isopropyl-1,3-dimethyl-2-oxo-2,3-dihydro-1H-benzo[d]imidazol-5-yl)isoquinolin-3-yl)picolinamide] |
| 60 to 79 | 10 to 99 | COc1cc(C#CCNC(=O)c2ccc(-c3cc4cccc(-c5cc(C(C)C)c6c(c5)n(C)c(=O)n6C)c4cn3)cn2)cc2c1cnn2C1CCC(=O)NC1=O (stereo not drawn) [Example A26, N-(3-(1-(2,6-Dioxopiperidin-3-yl)-4-methoxy-1H-indazol-6-yl)prop-2-yn-1-yl)-5-(8-(7-isopropyl-1,3-dimethyl-2-oxo-2,3-dihydro-1H-benzo[d]imidazol-5-yl)isoquinolin-3-yl)picolinamide] |
| 60 to 79 | 1 to 9.9 | COc1cc2cnn(C3CCC(=O)NC3=O)c2cc1C#CCNC(=O)c1ccc(-c2cc3cccc(-c4cc(C(C)C)c5c(c4)n(C)c(=O)n5C)c3cn2)cn1 (stereo not drawn) [Example A27, N-(3-(1-(2,6-Dioxopiperidin-3-yl)-5-methoxy-1H-indazol-6-yl)prop-2-yn-1-yl)-5-(8-(7-isopropyl-1,3-dimethyl-2-oxo-2,3-dihydro-1H-benzo[d]imidazol-5-yl)isoquinolin-3-yl)picolinamide] |
| 60 to 79 | 1 to 9.9 | CC(C)c1cc(-c2cccc3cc(-c4ccc(C(=O)NCC#Cc5ccc6c(CN(C)C)nn(C7CCC(=O)NC7=O)c6c5)nc4)ncc23)cc2c1n(C)c(=O)n2C (stereo not drawn) [Example A28, N-(3-(3-((Dimethylamino)methyl)-1-(2,6-dioxopiperidin-3-yl)-1H-indazol-6-yl)prop-2-yn-1-yl)-5-(8-(7-isopropyl-1,3-dimethyl-2-oxo-2,3-dihydro-1H-benzo[d]imidazol-5-yl)isoquinolin-3-yl)picolinamide] |
| > 80 | 1 to 9.9 | COc1cc(-c2cc3cccc(-c4cc(C(C)C)c5c(c4)n(C)c(=O)n5C)c3cn2)cnc1C(=O)NCC#Cc1ccc2c(c1)c(C1CCC(=O)NC1=O)nn2C (stereo not drawn) [Example A30, N-(3-(3-(2,6-Dioxopiperidin-3-yl)-1-methyl-1H-indazol-5-yl)prop-2-yn-1-yl)-5-(8-(7-isopropyl-1,3-dimethyl-2-oxo-2,3-dihydro-1H-benzo[d]imidazol-5-yl)isoquinolin-3-yl)-3-methoxypicolinamide] |
| 20 to 39 | 1 to 9.9 | CC(C)c1cc(-c2cccc3cc(-c4ccc(C(=O)NCC#Cc5ccc6c(C(F)F)nn(C7CCC(=O)NC7=O)c6c5)nc4)ncc23)cc2c1n(C)c(=O)n2C (stereo not drawn) [Example A31, N-(3-(3-(Difluoromethyl)-1-(2,6-dioxopiperidin-3-yl)-1H-indazol-6-yl)prop-2-yn-1-yl)-5-(8-(7-isopropyl-1,3-dimethyl-2-oxo-2,3-dihydro-1H-benzo[d]imidazol-5-yl)isoquinolin-3-yl)picolinamide] |
| > 80 | 1 to 9.9 | CC(C)c1cc(-c2cccc3cc(-c4ccc(C(=O)NCC#Cc5cc6c(c(NC7CCC(=O)NC7=O)c5)OCC6)nc4)ncc23)cc2c1n(C)c(=O)n2C (stereo not drawn) [Example A32, N-(3-(7-((2,6-Dioxopiperidin-3-yl)amino)-2,3-dihydrobenzofuran-5-yl)prop-2-yn-1-yl)-5-(8-(7-isopropyl-1,3-dimethyl-2-oxo-2,3-dihydro-1H-benzo[d]imidazol-5-yl)isoquinolin-3-yl)picolinamide] |
